Measurements reported in patent publication US9804176B2, “Assays for vitamin D epimers” (Siemens Healthcare Diagnostics Inc., priority 2014, dated 2017).
“And” between values parts separate entries of the source, which are not always exact repeats. Identical values can stand only once.

Tested on: biotinylated monoclonal anti-25OH vitamin D antibody
Experiment: 25OH Vitamin D LOCI immunoassay, 3-epimer cross-reactivity, no anti-3-epimer antibody added
Type: binding, sheep
Details: No anti-3-epimer VD Ab added; for Avg. Cross-reactivity: average of ten patient sera spiked with 100 ng/mL 3-epimer D3
Protocol: The 25OH Vitamin D (25(OH)D) immunoassay format employed was a homogeneous competitive chemiluminescent immunoassay based on LOCI® assay technology. The assay was performed on the Siemens Dimension® EXL automated integrated clinical chemistry system (Siemens Healthcare Diagnostics Inc., Deerfield, Ill.). The assay measured the total concentration of 25(OH)D2 and/or 25(OH)D3 in serum and plasma samples. The LOCI® assay reagents included a releasing reagent, two synthetic bead reagents and a biotinylated monoclonal anti-25OH vitamin D antibody reagent. The first bead reagent (designated “Sensibeads”) was coated with streptavidin and contained a photosensitive dye. The second bead reagent (designated “Chemibeads”) was coated with a 25(OH)D3 analog and contained chemiluminescent dye. Sample was incubated with the releasing reagent to release 25(OH)D molecules including 3-epimeric compounds from vitamin D binding proteins. The reaction mixture was then incubated with biotinylated antibody to form a 25(OH)D-biotinylated antibody complex. […] Chemibeads were added to bind excess free biotinylated antibody. Sensibeads were then added to bind to the biotin portion of the biotinylated antibody. Aggregates of Chemibead-analog/antibody-biotin/streptavidin-Sensibeads were formed as a result. […] The resulting chemiluminescent signal was measured at 612 nm and is inversely proportional to the concentration of total 25(OH)D in the sample.
Biotinvlation of anti-25(OH)D antibody—NHS-PEO4-biotin (Pierce Chemical Company, Rockford Ill.) was coupled with the anti-25(OH)D antibody (a sheep monoclonal antibody from Bioventix, Farnham, Surrey, UK). […] The concentration was measured on UV A280. […]
The effect of adding anti-3-epimer-VD antibody 8F10.1 (anti-3-epimer VD Ab) on the 3-epimer cross-reactivity for the assay is shown in Table 1. […] The 3-epimer cross-reactivity was calculated by the difference between 25(OH)D2 or 25(OH)D3 values with and without the spiked 3-epimer compound divided by the amount of added 3-epimer compound.

SMILES: C=C1CC[C@@H](O)C/C1=C/C=C1\CCC[C@]2(C)[C@@H]([C@H](C)CCCC(C)(C)O)CC[C@@H]12 [3-epimer D3, 3-epi-25-hydroxyvitamin D3]
- Avg. Cross-reactivity: 13.7%
- Avg. Cross-reactivity (listed as 3-epimer vitamin D3 compound): 13.7%
- Cross-Reactivity (individual patient serum spiked with 100 ng/mL 3-epimer D3): 17.9% (2×) and 11.9% and 12.6% and 16.1% and 10.2% and 9.1% and 10.5% and 15.3% and 15.5%
